Measured values: patent US10962529B1 (priority 2020, dated 2021)
“Also recorded” adds a separate entry of the source.

Legend:
Format in all cases: biochemical
[1] = tested on: SARS-COV-2 total protease; test: High throughput FRET screening of fluorogenic dipeptide substrates; settings: for Relative fluorescence (change in the fluorescence signal in the presence of SARS-COV-2 protease): relative to FITC-Ahx-H-d-K(Dabcyl) = 100, ex 485 nm, em 535 nm; for Relative fluorescence (change in the fluorescence signal in the presence of SARS-COV-2 protease) / Fluorescence intensity increase relative to H-d peptide: 37° C.; for Fluorescence intensity increase relative to H-d peptide: H-d set as relative scale of 100%
[2] = tested on: SARS-COV-2 live virus (protease); test: Real-time fluorescence kinetics and detection limit of FRET substrate with live virus
[3] = tested on: MERS-COV protease (viral particles)

Substance	Relative fluorescence (change in the fluorescence signal in the presence of SARS-COV-2 protease) [1]	also measured
FITC-Ahx-E-d-K(Dabcyl)	58	–
FITC-Ahx-F-R-K(Dabcyl)	82	Fluorescence intensity increase relative to H-d peptide [1]: 82%
FITC-Ahx-H-d-K(Dabcyl)	100	Fluorescence intensity increase relative to H-d peptide [1]: 100%; Change in the fluorescence signal of the substrate [2]: no significant change; Fraction of the reaction completed within 30 minutes [2]: more than 50%; Time after which the fluorescence curve plateaus [2]: 1.5 h; Increase in the fluorescence intensity in the presence of MERS-COV virus [3]: less than 20%
FITC-Ahx-K-K-K(Dabcyl)	62	–
FITC-Ahx-K-d-K(Dabcyl)	47	–
FITC-Ahx-P-P-K(Dabcyl)	55	–
FITC-Ahx-R-d-K(Dabcyl)	67	–
FITC-Ahx-R-h-K(Dabcyl) [reference compound]	–	Increase in the fluorescence intensity in the presence of SARS-COV-2 protease ([1]; incubated at 37° C., after 3 hours): insignificant increase; also recorded: very minimum fluorescence change
